{"source": "patent US20160366886A1", "about": "“BIOCIDAL COMPOSITION, PREPARATION AND METHODS OF USE THEREOF” (BROMINE COMPOUNDS LTD., priority 2014, published 2016)", "key": {"[1]": {"tested_on": "Pseudomonas aeruginosa (ATCC 15442)", "experiment": "Biocidal activity against simulated biofilm (bacteria entrapped in alginate gel beads), surviving CFU", "format": "cell-based", "conditions": "for time of total kill: alginate beads, pH 7", "source_text": "A biofilm simulation system developed by the Biofilm Bozeman Institute Montana (Grobe K. J., Zahler J., and Stewart P. S., 2002 in “Role of dose concentration in biocide efficacy against Pseudomonas aeruginosa Biofilms”, J. Industrial Microbiology & Biotechnology, vol. 29, pp 10-15), was used in this experiment to evaluate the efficacy of biocidal solutions against biofilm.\nThe biofilm simulation was created by entrapping bacteria in alginate gel beads. A plate of R2A agar was streaked with Pseudomonas aeruginosa (ATCC 15442) and incubated at 35° C. overnight. Buffer phosphate at pH 7.2 was used to scrap off the bacteria from the agar plate and to create a suspension. The bacterial suspension was mixed with an equal volume of an aqueous 4% sodium alginate solution, to make a final 2% alginate solution. The alginate and bacterial slurry were placed in a 50 ml syringe attached to a 22 gauge needle, connected to a compressed air tank, allowing the syringe to be pressurized. At 20 psig pressure a stream of small drops was forced out and dropped into a stirred solution of 50 mM CaCl2. The Ca^+2 cross linked the alginate, and semi solid beads with entrapped bacterial cells were formed. The beads were allowed to stir in the CaCl2 solution for about 20 minutes, and then rinsed in a dilute 5 mM CaCl2 solution. Several flasks containing 100 beads each were incubated overnight at 35° C. on a rotating shaker in a buffer solution (at pH 7) with 5 mM addition of CaCl2 to maintain the beads structure. The resulting beads diameter is about 2 mm\nAt the beginning of the experiment, the supernatant of the beads buffer suspension containing 5 mM CaCl2 was decanted and replaced by the 100 ml biocide solution with the required concentration (between 0.5, 1, 2.5 and 5 ppm as total Cl2).\nAfter different interval contact times, 10 beads were removed and placed in a 5 g/l sodium thiosulfate solution containing 50 mM sodium citrate. The sodium citrate was used to dissolve the alginate gel and release the bacteria into the solution. The neutralizer-citrate solution was placed in the refrigerator for 2 hours, than diluted and placed on R2A agar plates using pour plate technique. The plates were incubated at 35° C. for 24-48 hours and counted. The efficacy and toxicity of the neutralizer were checked as well as a control experiment without biocide addition. Four concentrations (0.5, 1, 2.5 and 5 ppm) were tested at four different contact times (5, 15, 30, and 60 min) FIGS. 1-10 describe the surviving colony forming units (CFU) of the bacteria after the biocide treatment at different contact times."}, "[2]": {"experiment": "Stability of the aqueous biocide solution (total active chlorine as Cl2 over time)", "format": "physicochemical", "source_text": "The concentration of the active chlorine is based on the measurement of total chlorine (as Cl2). The term “as Cl2” refers to the measurement of the active chlorine as total chlorine."}, "[3]": {"conditions": "1 ppm dose, contact time not stated"}}}
{"compound": "[Na+].[O-]Cl", "note": "[NaOCl]", "values": [{"measurement": "effect on the microbe concentration", "setting": "[1]; 0.5 ppm dose", "result": "no effect was observed at all"}, {"measurement": "log reduction of microbe concentration", "setting": "[1]; [3]", "result": 1, "unit": "log"}, {"measurement": "log reduction of microbe concentration", "setting": "[1]; 2.5 ppm dose, after 60 min", "result": 1, "unit": "log"}, {"measurement": "log reduction of microbe concentration", "setting": "[1]; 2.5 ppm dose, contact time not stated", "result": 1, "unit": "log"}, {"measurement": "time of total kill", "setting": "[1]; 5 ppm dose (as total Cl2)", "result": 60, "unit": "min"}]}
{"compound": "NCl", "note": "[chloramine]", "values": [{"measurement": "log reduction of microbe concentration", "setting": "[1]; 0.5 ppm dose, contact time not stated", "result": 4, "unit": "log"}, {"measurement": "active chlorine reading (as Cl2)", "setting": "[2]; after 20.3 hrs", "result": 493, "unit": "ppm"}, {"measurement": "active chlorine remaining, percent of initial", "setting": "[2]; after 20.3 hrs", "result": 91, "unit": "%"}, {"measurement": "active chlorine reading (as Cl2)", "setting": "[2]; after 44.4 hrs", "result": 223, "unit": "ppm"}, {"measurement": "active chlorine remaining, percent of initial", "setting": "[2]; after 44.4 hrs", "result": 41.4, "unit": "%"}, {"measurement": "time the solution / active Cl2 level stayed stable (unchanged)", "setting": "[2]; aqueous solution about 500 ppm as Cl2", "result": 2, "unit": "h"}, {"measurement": "total active Cl2 found after mixing", "setting": "[2]; freshly mixed solution, expected 500 ppm as Cl2", "result": 539, "unit": "ppm"}]}
{"compound": "O=c1nc([O-])n(Cl)c(=O)n1Cl.[Na+]", "note": "[NaDCC, sodium dichloroisocyanurate]", "values": [{"measurement": "effect on the microbe concentration", "setting": "[1]; 0.5 ppm dose", "result": "almost no activity"}, {"measurement": "effect on the microbe concentration", "setting": "[1]; 1 ppm dose", "result": "almost no activity"}, {"measurement": "log reduction of microbe concentration", "setting": "[1]; [3]", "result": 1, "unit": "log"}, {"measurement": "time of total kill", "setting": "[1]; 2.5 ppm dose (as total Cl2)", "result": 60, "unit": "min"}, {"measurement": "log reduction of microbe concentration", "setting": "[1]; 2.5 ppm dose, after 60 min", "result": "more than 4 log"}, {"measurement": "time of total kill", "setting": "[1]; 5 ppm dose (as total Cl2)", "result": 30, "unit": "min"}]}
{"compound": "O=c1n(Cl)c(=O)n(Cl)c(=O)n1Cl", "note": "[TCCA, trichloroisocyanuric acid]", "values": [{"measurement": "effect on the microbe concentration", "setting": "[1]; 0.5 ppm dose", "result": "almost no activity"}, {"measurement": "effect on the microbe concentration", "setting": "[1]; 1 ppm dose", "result": "almost no activity"}, {"measurement": "log reduction of microbe concentration", "setting": "[1]; [3]", "result": 1, "unit": "log"}, {"measurement": "time of total kill", "setting": "[1]; 2.5 ppm dose (as total Cl2)", "result": 60, "unit": "min"}, {"measurement": "time of total kill", "setting": "[1]; 5 ppm dose (as total Cl2)", "result": 30, "unit": "min"}]}
